Where a name gives a salt, the structure may show the parent alone.
Target: T1, ferroportin (Fpn) (Mus musculus, UniProt Q9JHI9)
T1 construct: endogenous in cells; host or cells: J774 mouse macrophage cell line, induced with Fe(III)NTA
T1 sequence (Q9JHI9 1-570): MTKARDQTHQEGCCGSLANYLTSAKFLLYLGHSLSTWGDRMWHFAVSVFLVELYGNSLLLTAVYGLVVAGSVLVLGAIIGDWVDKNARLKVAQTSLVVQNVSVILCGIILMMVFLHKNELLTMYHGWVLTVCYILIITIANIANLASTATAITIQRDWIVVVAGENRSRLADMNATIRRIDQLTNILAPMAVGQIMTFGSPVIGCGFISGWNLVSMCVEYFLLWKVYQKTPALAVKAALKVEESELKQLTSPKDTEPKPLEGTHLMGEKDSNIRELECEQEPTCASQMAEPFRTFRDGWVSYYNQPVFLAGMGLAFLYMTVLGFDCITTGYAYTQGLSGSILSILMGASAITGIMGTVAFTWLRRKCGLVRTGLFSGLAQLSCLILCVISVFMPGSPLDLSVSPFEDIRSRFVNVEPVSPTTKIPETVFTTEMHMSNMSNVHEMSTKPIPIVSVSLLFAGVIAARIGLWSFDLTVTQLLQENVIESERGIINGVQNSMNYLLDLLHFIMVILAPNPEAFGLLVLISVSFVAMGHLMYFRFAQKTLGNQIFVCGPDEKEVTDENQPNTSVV
Assay: Hepcidin Internalization Assay (J774)
Format: cell-based
Settings: J774 cells, 25 nM TMR-hepcidin, 2 hours; average of multiple measurements; read-out: Average (AVE) IC50 of Fpn inhibitors in the hepcidin internalization assay
From the text: This cellular assay allows quantification of the binding of hepcidin to ferroportin (Fpn) through microscopic detection of internalization of a fluorescently labeled hepcidin into J774 cells. […] Binding of hepcidin to Fpn triggers internalization and degradation of both hepcidin and Fpn. […] Therefore, microscopic detection of cell-associated TMR fluorescence is a measure of hepcidin binding to Fpn and internalization of hepcidin and Fpn. If TMR-hepcidin is prevented from binding to Fpn, cellular TMR fluorescence remains low (Durrenberger et al, 2013). The effect of small molecular weight Fpn inhibitor compounds in this assay was evaluated in vitro as described below. […] Cat. 655090) and grown at 37° C. with 5% CO2. After overnight incubation, cells were washed 3 times with pre-warmed DMEM w/o phenol red, 30 μl/well of DMEM w/o phenol red was added after the final wash and 10 μl/well of dilution series of test compounds were added in triplicates. […] Cells were incubated in a total volume of 50 μl at 37° C. with 5% CO2 for 2 hours, then Hoechst 33342 dye was added to a final concentration of 0.5 μg/ml to stain nuclei and further incubated for 10 min. at 37° C. with 5% CO2. […] After removal of the paraformaldehyde solution, cells were washed 3 times with PBS leaving 100 μl per well and the plates were sealed with foil plate seal. […] The acquired image data was analysed with the […] analysis software. […] IC50 values were calculated with the Sum(Mean) raw data using “log(inhibitor) vs. response” curve fitting of Prism 5 software (GraphPad Software Inc., version 5.02). For each data set the fit of the “log(inhibitor) vs. response (three parameters)” model was compared to the fit of the “log(inhibitor) vs. response-Variable slope (four parameters)” model and the IC50 data of the preferred model was used.

| Compound | IC50 |
| --- | --- |
| COCCOCCn1c(CCNCCc2nc3c(NCc4ncccc4F)nccc3o2)nc2ccccc21 [Example Compound No. 3, N-((3-fluoropyridin-2-yl)methyl)-2-(2-((2-(1-(2-(2-methoxyethoxy)ethyl)-1H-benzo[d]imidazol-2-yl)ethyl)amino)ethyl)oxazolo[4,5-c]pyridin-4-amine] | 9 nM |
| CCn1c(CCNCCc2nc3c(NCc4ncccc4F)nccc3o2)nc2ccccc21 [Example Compound No. 19, 2-(2-((2-(1-ethyl-1H-benzo[d]imidazol-2-yl)ethyl)amino)ethyl)-N-((3-fluoropyridin-2-yl)methyl)oxazolo[4,5-c]pyridin-4-amine] | 18 nM |
| CN1CCN(CCn2c(CCNCCc3nc4c(NCc5ncccc5F)nccc4o3)nc3cc4c(cc32)OCCO4)CC1 [Example Compound No. 18, N-((3-fluoropyridin-2-yl)methyl)-2-(2-((2-(1-(2-(4-methylpiperazin-1-yl)ethyl)-6,7-dihydro-1H-[1,4]dioxino[2′,3′:4,5]benzo[1,2-d]imidazol-2-yl)ethyl)amino)ethyl)oxazolo[4,5-c]pyridin-4-amine] | 20000 nM |
| Fc1cccnc1CNc1nccc2oc(CCNCCc3nc4ccccc4n3Cc3ccccc3)nc12 [Example Compound No. 10, 2-(2-((2-(1-benzyl-1H-benzo[d]imidazol-2-yl)ethyl)amino)ethyl)-N-((3-fluoropyridin-2-yl)methyl)oxazolo[4,5-c]pyridin-4-amine] | 8 nM |
| Fc1cccnc1CNc1nccc2oc(CCNCCc3nc4ccccc4n3CCN3CCOCC3)nc12 [Example Compound No. 8, N-((3-fluoropyridin-2-yl)methyl)-2-(2-((2-(1-(2-morpholinoethyl)-1H-benzo[d]imidazol-2-yl)ethyl)amino)ethyl)oxazolo[4,5-c]pyridin-4-amine] | 7 nM |
| Fc1cccnc1CNc1nccc2oc(CCNCCc3nc4ccccc4n3CCc3ccccc3)nc12 [Example Compound No. 16, N-((3-fluoropyridin-2-yl)methyl)-2-(2-((2-(1-phenethyl-1H-benzo[d]imidazol-2-yl)ethyl)amino)ethyl)oxazolo[4,5-c]pyridin-4-amine] | 40200 nM |
| Fc1cccnc1CNc1nccc2oc(CCNCCc3nc4ccccc4n3Cc3ccccn3)nc12 [Example Compound No. 15, N-((3-fluoropyridin-2-yl)methyl)-2-(2-((2-(1-(pyridin-2-ylmethyl)-1H-benzo[d]imidazol-2-yl)ethyl)amino)ethyl)oxazolo[4,5-c]pyridin-4-amine] | 9500 nM |
| COCCn1c(CCNCCc2nc3c(NCc4ncccc4F)nccc3o2)nc2ccccc21 [Example Compound No. 1, N-((3-fluoropyridin-2-yl)methyl)-2-(2-((2-(1-(2-methoxyethyl)-1H-benzo[d]imidazol-2-yl)ethyl)amino)ethyl)oxazolo[4,5-c]pyridin-4-amine] | 9 nM |
| Fc1cccnc1CNc1nccc2oc(CCNCCc3nc4cc5c(cc4n3CC3CC3)OCCO5)nc12 [Example Compound No. 13, 2-(2-((2-(1-(cyclopropylmethyl)-6,7-dihydro-1H-[1,4]dioxino[2′,3′:4,5]benzo[1,2-d]-imidazol-2-yl)ethyl)amino)ethyl)-N-((3-fluoropyridin-2-yl)methyl)oxazolo[4,5-c]pyridin-4-amine] | 5 nM |
| COCCOCCn1c(CCN2CC(c3nc4c(NCc5ncccc5F)nccc4o3)C2)nc2ccccc21 [Example Compound No. 6, N-((3-fluoropyridin-2-yl)methyl)-2-(1-(2-(1-(2-(2-methoxyethoxy)ethyl)-1H-benzo[d]imidazol-2-yl)ethyl)azetidin-3-yl)oxazolo[4,5-c]pyridin-4-amine] | 11 nM |
| Fc1cccnc1CNc1nccc2oc(CCNCCc3nc4ccccc4n3CC3CC3)nc12 [Example Compound No. 2, 2-(2-((2-(1-(cyclopropylmethyl)-1H-benzo[d]imidazol-2-yl)ethyl)amino)ethyl)-N-((3-fluoropyridin-2-yl)methyl)oxazolo[4,5-c]pyridin-4-amine] | 15 nM |
| Cn1c(CCNCCc2nc3c(NCc4ncccc4F)nccc3o2)nc2ccccc21 [Example Compound No. 22, N-((3-fluoropyridin-2-yl)methyl)-2-(2-((2-(1-methyl-1H-benzo[d]imidazol-2-yl)ethyl)amino)ethyl)oxazolo[4,5-c]pyridin-4-amine formate] | 40 nM |
| COCCn1c(CCNCCc2nc3c(NCc4ncccc4F)nccc3o2)nc2cc3c(cc21)OCCO3 [Example Compound No. 7, N-((3-fluoropyridin-2-yl)methyl)-2-(2-((2-(1-(2-methoxyethyl)-6,7-dihydro-1H-[1,4]dioxino-[2′,3′:4,5]benzo[1,2-d]imidazol-2-yl)ethyl)amino)ethyl)oxazolo[4,5-c]pyridin-4-amine] | 83 nM |
| Fc1cccnc1CNc1nccc2oc(CCNCCc3nc4cc5c(cc4n3-c3ccccc3)OCCO5)nc12 [Example Compound No. 23, N-((3-fluoropyridin-2-yl)methyl)-2-(2-((2-(1-phenyl-6,7-dihydro-1H-[1,4]dioxino[2′,3′:4,5]benzo[1,2-d]imidazol-2-yl)ethyl)amino)ethyl)oxazolo[4,5-c]pyridin-4-amine formate] | 18 nM |
| COc1cccc(Cn2c(CCNCCc3nc4c(NCc5ncccc5F)nccc4o3)nc3ccccc32)c1 [Example Compound No. 11, N-((3-fluoropyridin-2-yl)methyl)-2-(2-((2-(1-(3-methoxybenzyl)-1H-benzo[d]-imidazol-2-yl)ethyl)amino)ethyl)oxazolo[4,5-c]pyridin-4-amine] | 5 nM |
| Fc1cccnc1CNc1nccc2oc(CCNCCc3nc4cc5c(cc4n3CCN3CCOCC3)OCCO5)nc12 [Example Compound No. 9, N-((3-fluoropyridin-2-yl)methyl)-2-(2-((2-(1-(2-morpholinoethyl)-6,7-dihydro-1H-[1,4]dioxino[2′,3′:4,5]benzo[1,2-d]imidazol-2-yl)ethyl)amino)ethyl)oxazolo[4,5-c]pyridin-4-amine] | 827 nM |
| CN(C)CCn1c(CCNCCc2nc3c(NCc4ncccc4F)nccc3o2)nc2cc3c(cc21)OCCO3 [Example Compound No. 14, 2-(2-((2-(1-(2-(dimethylamino)ethyl)-6,7-dihydro-1H-[1,4]dioxino[2′,3′:4,5]benzo[1,2-d]imidazol-2-yl)ethyl)amino)ethyl)-N-((3-fluoropyridin-2-yl)methyl)oxazolo[4,5-c]pyridin-4-amine] | 810 nM |
| CC(C)OCCn1c(CCNCCc2nc3c(NCc4ncccc4F)nccc3o2)nc2ccccc21 [Example Compound No. 4, N-((3-fluoropyridin-2-yl)methyl)-2-(2-((2-(1-(2-isopropoxyethyl)-1H-benzo[d]imidazol-2-yl)ethyl)amino)ethyl)oxazolo[4,5-c]pyridin-4-amine] | 4 nM |
| Fc1cccnc1CNc1nccc2oc(CCNCCc3nc4ccccc4n3Cc3cccc(Cl)c3)nc12 [Example Compound No. 12, 2-(2-((2-(1-(3-chlorobenzyl)-1H-benzo[d]imidazol-2-yl)ethyl)amino)ethyl)-N-((3-fluoropyridin-2-yl)methyl)oxazolo[4,5-c]pyridin-4-amine] | 28 nM |
| Fc1cccnc1CNc1nccc2oc(CCNCCc3nc4ccccc4n3-c3ccccc3)nc12 [Example Compound No. 17, N-((3-fluoropyridin-2-yl)methyl)-2-(2-((2-(1-phenyl-1H-benzo[d]imidazol-2-yl)ethyl)amino)ethyl)oxazolo[4,5-c]pyridin-4-amine] | 25 nM |
| CCn1c(CCNCCc2nc3c(NCc4ncccc4F)nccc3o2)nc2cc3c(cc21)OCCO3 [Example Compound No. 21, 2-(2-((2-(1-ethyl-6,7-dihydro-1H-[1,4]dioxino[2′,3′:4,5]benzo[1,2-d]imidazol-2-yl)ethyl)amino)ethyl)-N-((3-fluoropyridin-2-yl)methyl)oxazolo[4,5-c]pyridin-4-amine formate] | 31 nM |

Source: US20260146046A1, “BICYCLIC FERROPORTIN INHIBITORS” (Vifor (International) AG, priority 2022, published 2026)
